25 compounds from patent publication US8785462B2, “5-hydroxypyrimidine-4-carboxamide derivative” (Daiichi Sankyo Company, Limited, priority 2009, dated 2014) can be followed below.

The fold induction is the signal under treatment as a multiple of the control signal. A low value points to little rise in signal.

The subject of the assay is human liver cancer-derived cell line Hep3B. As to the kind of experiment: In vitro erythropoietin (EPO) induction activity in Hep3B cells (human EPO ELISA of culture supernatant). The assay is classed as cell-based. Particulars: test compound 12.5 μM, Hep3B cells cultured 24 hours at 37° C., multiple of the EPO concentration in the control (0.5% DMSO = 1). The method, then:
In vitro erythropoietin (EPO) induction activity of test compounds was evaluated using human liver cancer-derived cell line Hep3B (ATCC, Manassas, Va.). Hep3B cells were cultured overnight at 37° C. in Dulbecco's modified Eagle's medium (DMEM) in the presence of 10% fetal bovine serum (FBS) (24-well plate, 1.0×10^5 cells/well). After replacing with fresh DMEM (+10% FBS) containing a test compound dissolved in 0.5% dimethyl sulfoxide (DMSO) (prepared to a concentration of 12.5 μM) or a solvent control (0.5% DMSO), the cells were cultured for 24 hours at 37° C. After recovering the culture supernatant, EPO concentration in the culture supernatant was quantified using a human EPO ELISA kit (StemCell Technologies).
The EPO concentration in the case of using a compound of each example as a test compound was expressed as a multiple of the EPO concentration in the control.
In general terms: In an ELISA, binding on a coated surface is turned into a signal by an enzyme label.
For the compound `[2H]C([2H])(O)c1ccc(-c2ccc(N3CCC(Cc4nc(C)c(O)c(C(=O)NCC(=O)O)n4)CC3)cc2)cc1` [Example 44, ({[5-Hydroxy-2-{(1-[4′-(hydroxymethyl)biphenyl-4-yl]piperidin-4-yl}methyl)-6-methylpyrimidin-4-yl]carbonyl}amino)acetic acid-d2], the fold induction at 12.5 µM came to 26.

`Cc1nc(CC2CCN(c3ccc(-c4ccc(CO)c(F)c4)cc3)CC2)nc(C(=O)NCC(=O)O)c1O` [Example 37, ({[2-({1-[3′-Fluoro-4′-(hydroxymethyl)biphenyl-4-yl]piperidin-4-yl}methyl)-5-hydroxy-6-methylpyrimidin-4-yl]carbonyl}amino)acetic acid] displayed a fold induction at 12.5 µM of 31.

In turn, `Cc1nc(CC2CCN(c3ccc(-c4ccc(CO)cc4)c(F)c3)CC2)nc(C(=O)NCC(=O)O)c1O` [Example 38, ({[2-({1-[2-Fluoro-4′-(hydroxymethyl)biphenyl-4-yl]piperidin-4-yl}methyl)-5-hydroxy-6-methylpyrimidin-4-yl]carbonyl}amino)acetic acid] yielded a fold induction at 12.5 µM of 24.

`Cc1nc(CC2CCN(c3ccc(-c4ccc(C(C)(C)CO)cc4)cc3)CC2)nc(C(=O)NCC(=O)O)c1O` [Example 6, ({[5-Hydroxy-2-{(1-[4′-(2-hydroxy-1,1-dimethylethyl)biphenyl-4-yl]piperidin-4-yl}methyl)-6-methylpyrimidin-4-yl]carbonyl}amino)acetic acid] gave a fold induction at 12.5 µM of 36.

In turn, `Cc1cc(-c2ccc(N3CCC(Cc4nc(C)c(O)c(C(=O)NCC(=O)O)n4)CC3)cc2C)ccc1CO` [Example 26, ({[5-Hydroxy-2-({1-[4′-(hydroxymethyl)-2,3′-dimethylbiphenyl-4-yl]piperidin-4-yl}methyl)-6-methylpyrimidin-4-yl]carbonyl}amino)acetic acid] gave a fold induction at 12.5 µM of 13.

Take `Cc1nc(CC2CCN(c3ccc(-c4ccc(C(F)(F)CO)cc4)cc3)CC2)nc(C(=O)NCC(=O)O)c1O` [Example 30, ({[2-{(1-[4′-(1,1-Difluoro-2-hydroxyethyl)biphenyl-4-yl]piperidin-4-yl}methyl)-5-hydroxy-6-methylpyrimidin-4-yl]carbonyl}amino)acetic acid]: the fold induction at 12.5 µM was 23.

Compound `Cc1nc(CC2CCN(c3ccc(-c4ccc(CO)c(Cl)c4)cc3)CC2)nc(C(=O)NCC(=O)O)c1O` [Example 24, ({[2-{(1-[3′-Chloro-4′-(hydroxymethyl)biphenyl-4-yl]piperidin-4-yl}methyl)-5-hydroxy-6-methylpyrimidin-4-yl]carbonyl}amino)acetic acid] gave a fold induction at 12.5 µM of 30.

The compound `Cc1nc(CC2CCN(c3ccc(-c4ccc(CC(=O)N(C)C)cc4)cc3)CC2)nc(C(=O)NCC(=O)O)c1O` [Example 9, [({2-[(1-{4′-[2-(Dimethylamino)-2-oxoethyl]biphenyl-4-yl}piperidin-4-yl)methyl]-5-hydroxy-6-methylpyrimidin-4-yl}carbonyl)amino]acetic acid] had a fold induction at 12.5 µM of 36.

Turning to `Cc1nc(CC2CCN(c3ccc(-c4ccc(C(=O)N(C)C)cc4)cc3)CC2)nc(C(=O)NCC(=O)O)c1O` [Example 7, ({[2-{(1-[4′-(Dimethylcarbamoyl)biphenyl-4-yl]piperidin-4-yl}methyl)-5-hydroxy-6-methylpyrimidin-4-yl]carbonyl}amino)acetic acid], the fold induction at 12.5 µM is 50.

Compound `Cc1cc(-c2ccc(N3CCC(Cc4nc(C)c(O)c(C(=O)NCC(=O)O)n4)CC3)cc2)ccc1CO` [Example 40, ({[5-Hydroxy-2-({1-[4′-(hydroxymethyl)-3′-methylbiphenyl-4-yl]piperidin-4-yl}methyl)-6-methylpyrimidin-4-yl]carbonyl}amino)acetic acid] returned a fold induction at 12.5 µM of 25.

`Cc1nc(CC2CCN(c3ccc(-c4ccc(CC(C)O)cc4)cn3)CC2)nc(C(=O)NCC(=O)O)c1O` (stereo not shown) [Example 20, [({5-Hydroxy-2-[(1-{5-[4-(2-hydroxypropyl)phenyl]pyridin-2-yl}piperidin-4-yl)methyl]-6-methylpyrimidin-4-yl}carbonyl)amino]acetic acid]: the fold induction at 12.5 µM was found to be 11.

In turn, `Cc1nc(CC2CCN(c3ccc(-c4ccc(CCO)cc4)cc3)CC2)nc(C(=O)NCC(=O)O)c1O` [Example 4, ({[5-Hydroxy-2-({1-[4′-(2-hydroxyethyl)biphenyl-4-yl]piperidin-4-yl}methyl)-6-methylpyrimidin-4-yl]carbonyl}amino)acetic acid] returned a fold induction at 12.5 µM of 73.

For `Cc1nc(CC2CCN(c3ccc(-c4ccc(CC(C)O)cc4)cc3)CC2)nc(C(=O)NCC(=O)O)c1O` (stereo not shown) [Example 5, ({[5-Hydroxy-2-{(1-[4′-(2-hydroxypropyl)biphenyl-4-yl]piperidin-4-yl}methyl)-6-methylpyrimidin-4-yl]carbonyl}amino)acetic acid], the fold induction at 12.5 µM turned out to be 48.

`CNC(=O)c1ccc(-c2ccc(N3CCC(Cc4nc(C)c(O)c(C(=O)NCC(=O)O)n4)CC3)cc2)cc1` [Example 8, ({[5-Hydroxy-6-methyl-2-{(1-[4′-(methylcarbamoyl)biphenyl-4-yl]piperidin-4-yl}methyl)pyrimidin-4-yl]carbonyl}amino)acetic acid] displayed a fold induction at 12.5 µM of 94.

In turn, `Cc1nc(CC2CCN(c3ccc(-c4ccc(CO)cc4)cc3F)CC2)nc(C(=O)NCC(=O)O)c1O` [Example 39, ({[2-{(1-[3-Fluoro-4′-(hydroxymethyl)biphenyl-4-yl]piperidin-4-yl}methyl)-5-hydroxy-6-methylpyrimidin-4-yl]carbonyl}amino)acetic acid] had a fold induction at 12.5 µM of 18.

In the case of `CC[C@H](O)Cc1ccc(-c2ccc(N3CCC(Cc4nc(C)c(O)c(C(=O)NCC(=O)O)n4)CC3)cc2)cc1` [Example 47, [({5-Hydroxy-2-[(1-{4′-[(2S)-2-hydroxybutyl]biphenyl-4-yl}piperidin-4-yl)methyl]-6-methylpyrimidin-4-yl}carbonyl)amino]acetic acid], the fold induction at 12.5 µM is 34.

The compound `Cc1nc(CC2CCN(c3ccc(-c4ccc(C[C@H](C)O)cc4)cc3)CC2)nc(C(=O)NCC(=O)O)c1O` [Example 45, [({5-Hydroxy-2-[(1-{4′-[(2S)-2-hydroxypropyl]biphenyl-4-yl}piperidin-4-yl)methyl]-6-methylpyrimidin-4-yl}carbonyl)amino]acetic acid] came in with a fold induction at 12.5 µM of 41.

`COC[C@H](O)Cc1ccc(-c2ccc(N3CCC(Cc4nc(C)c(O)c(C(=O)NCC(=O)O)n4)CC3)cc2)cc1` [Example 49, [({5-Hydroxy-2-[(1-{4′-[(2R)-2-hydroxy-3-methoxypropyl]biphenyl-4-yl}piperidin-4-yl)methyl]-6-methylpyrimidin-4-yl}carbonyl)amino]acetic acid] had a fold induction at 12.5 µM of 18.

With `Cc1nc(CC2CCN(c3ccc(-c4ccc(C(C)O)cc4)cc3)CC2)nc(C(=O)NCC(=O)O)c1O` (stereo not shown) [Example 3, ({[5-Hydroxy-2-{(1-[4′-(1-hydroxyethyl)biphenyl-4-yl]piperidin-4-yl}methyl)-6-methylpyrimidin-4-yl]carbonyl}amino)acetic acid], the fold induction at 12.5 µM came to 24.

`COC[C@@H](O)Cc1ccc(-c2ccc(N3CCC(Cc4nc(C)c(O)c(C(=O)NCC(=O)O)n4)CC3)cc2)cc1` [Example 50, [({5-Hydroxy-2-[(1-{4′-[(2S)-2-hydroxy-3-methoxypropyl]biphenyl-4-yl}piperidin-4-yl)methyl]-6-methylpyrimidin-4-yl}carbonyl)amino]acetic acid] registered a fold induction at 12.5 µM of 23.

Compound `Cc1cc(CO)ccc1-c1ccc(N2CCC(Cc3nc(C)c(O)c(C(=O)NCC(=O)O)n3)CC2)cc1` [Example 25, ({[5-Hydroxy-2-{(1-[4′-(hydroxymethyl)-2′-methylbiphenyl-4-yl]piperidin-4-yl}methyl)-6-methylpyrimidin-4-yl]carbonyl}amino)acetic acid] came in with a fold induction at 12.5 µM of 22.

In turn, `CCOC(=O)c1ccc(-c2ccc(N3CCC(Cc4nc(C)c(O)c(C(=O)NCC(=O)O)n4)CC3)cc2)nc1` [Example 16, [({2-[(1-{4-[5-(Ethoxycarbonyl)pyridin-2-yl]phenyl}piperidin-4-yl)methyl]-5-hydroxy-6-methylpyrimidin-4-yl}carbonyl)amino]acetic acid] came in with a fold induction at 12.5 µM of 47.

The compound `Cc1nc(CC2CCN(c3ccc(-c4cc(F)c(CO)c(F)c4)cc3)CC2)nc(C(=O)NCC(=O)O)c1O` [Example 41, ({[2-({1-[3′,5′-Difluoro-4′-(hydroxymethyl)biphenyl-4-yl]piperidin-4-yl}methyl)-5-hydroxy-6-methylpyrimidin-4-yl]carbonyl}amino)acetic acid] yielded a fold induction at 12.5 µM of 20.

`Cc1nc(CC2CCN(c3ccc(-c4cc(Cl)c(CO)c(Cl)c4)cc3)CC2)nc(C(=O)NCC(=O)O)c1O` [Example 42, ({[2-{(1-[3′,5′-Dichloro-4′-(hydroxymethyl)biphenyl-4-yl]piperidin-4-yl}methyl)-5-hydroxy-6-methylpyrimidin-4-yl]carbonyl}amino)acetic acid] registered a fold induction at 12.5 µM of 28.

Turning to `Cc1nc(CC2CCN(c3ccc(-c4ccc(C[C@@H](C)O)cc4)cc3)CC2)nc(C(=O)NCC(=O)O)c1O` [Example 46, [({5-Hydroxy-2-[(1-{4′-[(2R)-2-hydroxypropyl]biphenyl-4-yl}piperidin-4-yl)methyl]-6-methylpyrimidin-4-yl}carbonyl)amino]acetic acid], the fold induction at 12.5 µM turned out to be 45.
